Measurements reported in BindingDB's records for doi:10.1074/jbc.M112.380782 (French Alternative Energies and Atomic Energy Commission, 2012).

Key:
Assay in all cases: Enzyme Assay
[1] = molecular target: 72 kDa type IV collagenase (Homo sapiens, UniProt P08253); conditions: pH 6.8; 25 °C
[2] = molecular target: T1, A disintegrin and metalloproteinase with thrombospondin motifs 5 (Homo sapiens, UniProt Q9UNA0); conditions: pH 6.8; 37 °C
T1 sequence (Q9UNA0 whole entry): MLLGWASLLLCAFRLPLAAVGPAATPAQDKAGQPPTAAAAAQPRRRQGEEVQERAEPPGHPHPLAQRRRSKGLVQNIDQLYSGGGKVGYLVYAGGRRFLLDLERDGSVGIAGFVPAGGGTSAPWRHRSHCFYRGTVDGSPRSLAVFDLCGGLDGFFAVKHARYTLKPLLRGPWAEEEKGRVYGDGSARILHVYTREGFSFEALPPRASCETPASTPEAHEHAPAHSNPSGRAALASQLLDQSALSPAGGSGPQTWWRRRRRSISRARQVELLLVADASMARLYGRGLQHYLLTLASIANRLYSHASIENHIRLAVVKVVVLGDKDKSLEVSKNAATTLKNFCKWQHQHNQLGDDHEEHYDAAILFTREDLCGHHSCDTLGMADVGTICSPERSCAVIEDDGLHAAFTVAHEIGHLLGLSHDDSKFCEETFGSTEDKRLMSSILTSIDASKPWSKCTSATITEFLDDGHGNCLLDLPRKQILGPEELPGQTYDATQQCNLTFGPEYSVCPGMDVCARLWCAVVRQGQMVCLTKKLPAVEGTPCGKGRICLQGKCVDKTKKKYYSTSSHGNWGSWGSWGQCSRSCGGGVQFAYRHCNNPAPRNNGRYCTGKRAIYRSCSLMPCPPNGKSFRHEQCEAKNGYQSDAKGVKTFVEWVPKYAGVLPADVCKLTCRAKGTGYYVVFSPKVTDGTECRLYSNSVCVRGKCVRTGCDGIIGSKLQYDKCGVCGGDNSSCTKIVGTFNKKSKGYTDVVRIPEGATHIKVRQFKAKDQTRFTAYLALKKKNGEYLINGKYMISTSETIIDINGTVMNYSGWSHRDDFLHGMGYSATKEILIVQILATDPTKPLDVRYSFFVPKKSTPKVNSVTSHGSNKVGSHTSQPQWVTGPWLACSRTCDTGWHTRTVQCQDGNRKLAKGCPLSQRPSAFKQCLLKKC

Collagenase 3 = Collagenase 3 (Homo sapiens, UniProt P45452); conditions: pH 6.8; 25 °C
[3] = molecular target: Macrophage metalloelastase (Homo sapiens, UniProt P39900); conditions: pH 6.8; 25 °C
Sequence of Macrophage metalloelastase (P39900 whole entry): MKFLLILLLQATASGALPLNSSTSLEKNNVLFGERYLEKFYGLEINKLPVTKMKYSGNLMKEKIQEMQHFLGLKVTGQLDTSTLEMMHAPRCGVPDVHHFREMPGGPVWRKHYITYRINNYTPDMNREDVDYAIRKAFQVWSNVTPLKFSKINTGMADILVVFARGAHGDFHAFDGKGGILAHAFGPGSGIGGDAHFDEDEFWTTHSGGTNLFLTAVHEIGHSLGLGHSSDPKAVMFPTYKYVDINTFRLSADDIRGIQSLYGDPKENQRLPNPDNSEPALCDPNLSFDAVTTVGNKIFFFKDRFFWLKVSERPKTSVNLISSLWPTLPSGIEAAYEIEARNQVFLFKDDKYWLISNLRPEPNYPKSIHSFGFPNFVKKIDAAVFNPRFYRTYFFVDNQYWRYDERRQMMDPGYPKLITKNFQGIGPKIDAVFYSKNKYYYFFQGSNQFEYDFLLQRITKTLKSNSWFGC

[4] = molecular target: Matrix metalloproteinase-14 (Homo sapiens, UniProt P50281); conditions: pH 6.8; 25 °C
[5] = molecular target: Matrix metalloproteinase-9 (Homo sapiens, UniProt P14780); conditions: pH 6.8; 25 °C
Sequence of Matrix metalloproteinase-9 (P14780 whole entry): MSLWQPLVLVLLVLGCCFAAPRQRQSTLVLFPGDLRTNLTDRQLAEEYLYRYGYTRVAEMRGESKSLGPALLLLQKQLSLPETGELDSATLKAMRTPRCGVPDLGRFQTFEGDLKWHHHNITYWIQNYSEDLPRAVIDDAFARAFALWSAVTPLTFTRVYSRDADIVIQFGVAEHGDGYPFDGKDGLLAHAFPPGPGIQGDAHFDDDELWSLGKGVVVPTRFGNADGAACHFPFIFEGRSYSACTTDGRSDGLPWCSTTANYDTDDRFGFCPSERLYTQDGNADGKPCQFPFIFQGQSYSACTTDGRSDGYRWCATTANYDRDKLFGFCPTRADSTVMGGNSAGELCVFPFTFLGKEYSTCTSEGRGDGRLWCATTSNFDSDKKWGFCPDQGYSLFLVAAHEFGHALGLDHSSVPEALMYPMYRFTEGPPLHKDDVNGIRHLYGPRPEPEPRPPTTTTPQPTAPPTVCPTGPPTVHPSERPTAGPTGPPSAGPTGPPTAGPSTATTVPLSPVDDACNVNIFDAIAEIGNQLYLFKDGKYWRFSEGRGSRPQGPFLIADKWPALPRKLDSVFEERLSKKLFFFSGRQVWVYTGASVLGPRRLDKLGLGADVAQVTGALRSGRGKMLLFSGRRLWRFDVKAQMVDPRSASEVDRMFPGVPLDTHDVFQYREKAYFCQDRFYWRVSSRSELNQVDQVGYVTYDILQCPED

Neutrophil collagenase = Neutrophil collagenase (Homo sapiens, UniProt P22894); conditions: pH 6.8; 25 °C
Sequence of Neutrophil collagenase (P22894 whole entry): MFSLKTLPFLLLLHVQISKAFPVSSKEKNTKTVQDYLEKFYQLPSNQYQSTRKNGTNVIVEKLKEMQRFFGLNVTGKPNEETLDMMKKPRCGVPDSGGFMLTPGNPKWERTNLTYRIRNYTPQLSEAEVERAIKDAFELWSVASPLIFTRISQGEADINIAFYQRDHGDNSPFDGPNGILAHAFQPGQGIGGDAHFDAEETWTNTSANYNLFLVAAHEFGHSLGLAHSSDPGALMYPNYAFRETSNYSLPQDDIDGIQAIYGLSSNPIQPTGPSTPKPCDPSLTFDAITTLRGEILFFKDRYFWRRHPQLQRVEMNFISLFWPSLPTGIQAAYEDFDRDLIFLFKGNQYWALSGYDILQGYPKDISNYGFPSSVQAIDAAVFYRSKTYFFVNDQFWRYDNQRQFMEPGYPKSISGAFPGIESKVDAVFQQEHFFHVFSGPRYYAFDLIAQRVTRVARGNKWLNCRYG

Stromelysin-1 = Stromelysin-1 (Homo sapiens, UniProt P08254); conditions: pH 6.8; 25 °C
Sequence of Stromelysin-1 (P08254 whole entry): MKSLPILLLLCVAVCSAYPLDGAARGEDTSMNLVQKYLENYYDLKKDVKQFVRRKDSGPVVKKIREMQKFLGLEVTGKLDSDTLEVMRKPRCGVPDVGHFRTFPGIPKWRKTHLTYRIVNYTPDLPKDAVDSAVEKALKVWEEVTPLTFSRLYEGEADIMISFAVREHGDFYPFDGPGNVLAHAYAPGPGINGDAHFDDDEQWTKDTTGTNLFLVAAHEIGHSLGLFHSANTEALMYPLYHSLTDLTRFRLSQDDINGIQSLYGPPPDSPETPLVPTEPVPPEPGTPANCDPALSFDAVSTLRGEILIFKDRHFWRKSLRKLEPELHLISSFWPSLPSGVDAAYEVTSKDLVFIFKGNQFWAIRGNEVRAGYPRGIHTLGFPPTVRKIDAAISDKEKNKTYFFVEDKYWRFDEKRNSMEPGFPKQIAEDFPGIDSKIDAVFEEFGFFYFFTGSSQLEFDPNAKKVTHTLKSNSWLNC

Stromelysin-2 = Stromelysin-2 (Homo sapiens, UniProt P09238); conditions: pH 6.8; 25 °C
Sequence of Stromelysin-2 (P09238 whole entry): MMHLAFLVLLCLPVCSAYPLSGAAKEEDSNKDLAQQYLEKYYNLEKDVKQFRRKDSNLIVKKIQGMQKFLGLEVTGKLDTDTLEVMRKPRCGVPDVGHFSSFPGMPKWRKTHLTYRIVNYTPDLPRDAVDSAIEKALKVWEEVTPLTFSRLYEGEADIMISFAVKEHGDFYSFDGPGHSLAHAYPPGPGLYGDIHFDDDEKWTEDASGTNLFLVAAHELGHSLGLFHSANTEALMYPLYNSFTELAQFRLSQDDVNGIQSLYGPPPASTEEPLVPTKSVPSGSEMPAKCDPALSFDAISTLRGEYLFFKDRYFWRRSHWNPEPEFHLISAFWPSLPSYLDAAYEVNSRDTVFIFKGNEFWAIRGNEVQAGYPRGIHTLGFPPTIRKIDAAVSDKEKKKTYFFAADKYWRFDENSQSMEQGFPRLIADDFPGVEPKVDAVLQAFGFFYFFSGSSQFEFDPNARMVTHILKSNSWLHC

[6] = molecular target: T2, A disintegrin and metalloproteinase with thrombospondin motifs 4 (Homo sapiens, UniProt O75173); conditions: pH 6.8; 25 °C
T2 sequence (O75173 whole entry): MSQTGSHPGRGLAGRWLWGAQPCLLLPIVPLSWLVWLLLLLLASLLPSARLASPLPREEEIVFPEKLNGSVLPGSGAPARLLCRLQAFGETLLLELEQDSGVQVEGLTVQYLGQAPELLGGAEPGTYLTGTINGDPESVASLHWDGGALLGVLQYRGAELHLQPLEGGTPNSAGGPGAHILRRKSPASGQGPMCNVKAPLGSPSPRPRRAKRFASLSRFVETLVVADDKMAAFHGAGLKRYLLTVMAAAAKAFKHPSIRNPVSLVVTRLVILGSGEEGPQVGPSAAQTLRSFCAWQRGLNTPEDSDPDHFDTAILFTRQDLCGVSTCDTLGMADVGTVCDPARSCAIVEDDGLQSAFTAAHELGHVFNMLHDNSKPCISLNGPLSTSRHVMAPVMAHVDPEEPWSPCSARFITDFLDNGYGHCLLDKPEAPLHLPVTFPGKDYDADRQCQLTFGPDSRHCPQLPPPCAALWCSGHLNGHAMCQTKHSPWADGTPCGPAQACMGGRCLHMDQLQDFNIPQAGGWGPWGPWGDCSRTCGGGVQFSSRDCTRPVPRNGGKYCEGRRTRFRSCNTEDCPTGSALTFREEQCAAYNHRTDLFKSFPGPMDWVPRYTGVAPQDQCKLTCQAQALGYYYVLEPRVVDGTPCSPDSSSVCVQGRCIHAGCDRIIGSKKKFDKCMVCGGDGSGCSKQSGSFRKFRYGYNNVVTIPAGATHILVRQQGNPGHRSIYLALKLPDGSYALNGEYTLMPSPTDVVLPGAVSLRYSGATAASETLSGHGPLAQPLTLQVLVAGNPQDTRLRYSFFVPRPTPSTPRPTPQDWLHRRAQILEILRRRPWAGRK

Interstitial collagenase = molecular target: T3, Interstitial collagenase (Homo sapiens, UniProt P03956); conditions: pH 6.8; 25 °C
T3 sequence (P03956 whole entry): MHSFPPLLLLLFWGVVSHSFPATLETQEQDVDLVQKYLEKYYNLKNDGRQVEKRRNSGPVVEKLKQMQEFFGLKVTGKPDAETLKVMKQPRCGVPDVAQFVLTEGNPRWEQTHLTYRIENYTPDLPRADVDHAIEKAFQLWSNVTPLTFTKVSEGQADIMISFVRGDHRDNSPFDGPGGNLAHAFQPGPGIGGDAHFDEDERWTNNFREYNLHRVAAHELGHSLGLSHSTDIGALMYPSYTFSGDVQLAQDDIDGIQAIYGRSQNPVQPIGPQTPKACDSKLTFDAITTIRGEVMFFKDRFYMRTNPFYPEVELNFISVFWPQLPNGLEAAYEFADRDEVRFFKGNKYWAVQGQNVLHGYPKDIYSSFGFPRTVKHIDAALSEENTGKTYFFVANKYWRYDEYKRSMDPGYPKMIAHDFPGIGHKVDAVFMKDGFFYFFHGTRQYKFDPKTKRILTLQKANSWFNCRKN

Matrilysin = molecular target: T4, Matrilysin (Homo sapiens, UniProt P09237); conditions: pH 6.8; 25 °C
T4 sequence (P09237 whole entry): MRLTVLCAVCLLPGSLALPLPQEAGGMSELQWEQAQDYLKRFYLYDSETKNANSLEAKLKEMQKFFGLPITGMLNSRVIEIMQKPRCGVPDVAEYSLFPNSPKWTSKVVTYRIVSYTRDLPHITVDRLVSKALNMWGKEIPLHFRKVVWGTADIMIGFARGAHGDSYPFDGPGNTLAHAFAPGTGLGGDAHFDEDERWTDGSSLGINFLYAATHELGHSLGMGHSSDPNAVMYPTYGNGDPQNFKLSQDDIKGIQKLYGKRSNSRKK

Sequence of 72 kDa type IV collagenase (P08253 whole entry): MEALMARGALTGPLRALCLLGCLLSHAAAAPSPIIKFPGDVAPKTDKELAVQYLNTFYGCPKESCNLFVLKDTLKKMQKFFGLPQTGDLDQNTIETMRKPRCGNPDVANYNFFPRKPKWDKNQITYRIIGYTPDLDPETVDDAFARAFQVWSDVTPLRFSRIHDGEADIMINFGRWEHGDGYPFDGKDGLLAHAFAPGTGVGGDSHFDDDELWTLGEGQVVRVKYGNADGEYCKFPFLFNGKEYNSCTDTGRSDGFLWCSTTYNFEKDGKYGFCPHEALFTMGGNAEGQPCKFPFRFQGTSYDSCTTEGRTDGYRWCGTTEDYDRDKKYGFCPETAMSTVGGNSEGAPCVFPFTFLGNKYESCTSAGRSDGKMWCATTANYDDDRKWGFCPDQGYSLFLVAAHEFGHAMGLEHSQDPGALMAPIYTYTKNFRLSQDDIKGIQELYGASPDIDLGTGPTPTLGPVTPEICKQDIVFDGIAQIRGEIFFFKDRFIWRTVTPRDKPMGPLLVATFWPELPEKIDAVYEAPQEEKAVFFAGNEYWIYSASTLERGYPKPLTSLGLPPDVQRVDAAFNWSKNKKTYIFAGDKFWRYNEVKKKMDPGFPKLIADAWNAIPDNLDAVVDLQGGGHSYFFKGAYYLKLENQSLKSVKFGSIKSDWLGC

Row | Compound | Ki [1] [nM] | Ki [2] [nM] | Ki (Collagenase 3) [nM] | Ki [3] [nM] | Ki [4] [nM] | Ki [5] [nM] | Ki (Neutrophil collagenase) [nM] | Ki (Stromelysin-1) [nM] | Ki (Stromelysin-2) [nM] | Ki [6] [nM] | Ki (Interstitial collagenase) [nM] | IC50 [1] [nM] | IC50 (Collagenase 3) [nM] | IC50 (Interstitial collagenase) [nM] | IC50 (Matrilysin) [nM] | IC50 [4] [nM] | IC50 [5] [nM] | IC50 (Neutrophil collagenase) [nM] | IC50 (Stromelysin-1) [nM]
1 | NC(=O)[C@H](CCC(=O)O)NC(=O)CCc1ccc(-c2ccc(-c3ccccc3)cc2)cc1 [Inhibitor, 18] | 47 | 5800 | 18 | 3.3 | 1050 | 2190 | 205 | 103 | 54 |  |  |  |  |  |  |  |  |  | 
2 | NC(=O)[C@H](CCC(=O)O)NC(=O)CCc1ccc(-c2ccc(-c3ccccc3)s2)cc1 [Inhibitor, 19] | 583 | 585 |  | 2.9 | > 10000 | 1330 |  | 329 | 352 |  |  |  |  |  |  |  |  |  | 
3 | Cc1ccc(-c2ccc(CCC(=O)N[C@@H](CCC(=O)O)C(N)=O)cc2)s1 [Inhibitor, 17] | 57 | 3220 | 338 | 3.3 | 2350 | 91 | 5.3 | 2160 | 390 | > 10000 |  |  |  |  |  |  |  |  | 
4 | NC(=O)[C@H](CCC(=O)O)NC(=O)CCc1ccc(-c2cc(-c3ccccc3)cs2)cc1 [US8691753, 105] |  | 4200 |  | 3.6 | 3010 | 2630 |  | 3000 | 3110 |  |  |  |  |  |  |  |  |  | 
5 | NC(=O)[C@@H](CCC(=O)O)NC(=O)[C@H](CCC(=O)O)NC(=O)C(Cc1cc(-c2ccc(-c3cccc(Cl)c3)cc2)no1)CP(=O)(O)c1ccc(Br)cc1 (stereo partly specified) [RXP470, Compound 4] | > 100 |  |  | 0.2 | > 100 | > 100 | > 100 |  | 8 |  | > 1000 |  |  |  |  |  |  |  | 
6 | CC(C)C(NS(=O)(=O)c1ccc2c(c1)oc1ccc(N3CCOC3=O)cc12)C(=O)O (stereo unspecified) [MMP Inhibitor, 2] |  |  |  |  |  |  |  |  |  |  |  | 66 | 46 | > 2000 | > 2000 | > 2000 | > 300 | 37 | > 300
7 | O=C(NCc1ccc(F)c(Cl)c1)c1cc(C(=O)NCC23CCC(C(=O)O)(CC2)CC3)n2nccc2n1 [MMP Inhibitor, 6] |  |  |  |  |  |  |  |  |  |  |  |  | 33.4 |  |  |  |  |  | 
8 | NC(=O)[C@H](CCC(=O)O)NC(=O)c1ccc(-c2cc(-c3ccccc3)cs2)cc1 [Inhibitor, 16] | 127 | 874 | 501 | 2.5 | 968 | 2230 |  | 5820 | 299 |  |  |  |  |  |  |  |  |  | 
